According to publication PMC3914206:

Tests used:
panel of 442 kinases [1] = molecular target: T1, panel of 442 kinases (Homo sapiens, UniProt Q13705); type: binding; set-up: KINOMEscan: ABL1(F317L)-phosphorylated / KINOMEscan: ABL1(H396P)-nonphosphorylated / KINOMEscan: ABL1(H396P)-phosphorylated / KINOMEscan: ABL1(M351T)-phosphorylated / KINOMEscan: ABL1(T315I)-phosphorylated / KINOMEscan: ABL1-nonphosphorylated / KINOMEscan: ABL1-phosphorylated / KINOMEscan: ACVR2A / KINOMEscan: ACVR2B / KINOMEscan: ADCK3 / KINOMEscan: ADCK4 / KINOMEscan: AKT1 / KINOMEscan: AKT3 / KINOMEscan: ALK / KINOMEscan: ARK5 / KINOMEscan: AURKA / KINOMEscan: AURKC / KINOMEscan: BIKE / KINOMEscan: BMPR1A / KINOMEscan: BMPR1B / KINOMEscan: BMX / KINOMEscan: BRK / KINOMEscan: BRSK1 / KINOMEscan: BRSK2 / KINOMEscan: CAMK1 / KINOMEscan: CAMK1D / KINOMEscan: CAMK1G / KINOMEscan: CAMK2A / KINOMEscan: CAMK2B / KINOMEscan: AAK1 / KINOMEscan: CAMK2D / KINOMEscan: CAMK2G / KINOMEscan: ABL1(F317I)-nonphosphorylated / KINOMEscan: ABL1(F317I)-phosphorylated / KINOMEscan: ABL1(F317L)-nonphosphorylated: unit: % Ctrl; settings: Compound Concentration 10 µM
T1 construct: purchased KINOMEscan
From the text: (§1) We assessed the selectivity of members of this scaffold using the KINOMEscan methodology across a near comprehensive panel of 442 kinases [[18,27]].

panel of 442 kinases [2] = molecular target: T2, panel of 442 kinases (Homo sapiens, UniProt Q16288); type: binding; set-up: KINOMEscan: ABL1(F317L)-phosphorylated / KINOMEscan: ABL1(H396P)-nonphosphorylated / KINOMEscan: ABL1(H396P)-phosphorylated / KINOMEscan: ABL1(M351T)-phosphorylated / KINOMEscan: ABL1(T315I)-phosphorylated / KINOMEscan: ABL1-nonphosphorylated / KINOMEscan: ABL1-phosphorylated / KINOMEscan: ACVR2A / KINOMEscan: ACVR2B / KINOMEscan: ADCK3 / KINOMEscan: ADCK4 / KINOMEscan: AKT1 / KINOMEscan: AKT3 / KINOMEscan: ALK / KINOMEscan: ARK5 / KINOMEscan: AURKA / KINOMEscan: AURKC / KINOMEscan: BIKE / KINOMEscan: BMPR1A / KINOMEscan: BMPR1B / KINOMEscan: BMX / KINOMEscan: BRK / KINOMEscan: BRSK1 / KINOMEscan: BRSK2 / KINOMEscan: CAMK1 / KINOMEscan: CAMK1D / KINOMEscan: CAMK1G / KINOMEscan: CAMK2A / KINOMEscan: CAMK2B / KINOMEscan: AAK1 / KINOMEscan: CAMK2D / KINOMEscan: CAMK2G / KINOMEscan: ABL1(F317I)-nonphosphorylated / KINOMEscan: ABL1(F317I)-phosphorylated / KINOMEscan: ABL1(F317L)-nonphosphorylated: unit: % Ctrl; settings: kinase TRKC; compound concentration 10 µM
T2 construct: purchased KINOMEscan
From the text: as §1

T1 sequence (Q13705 19-512): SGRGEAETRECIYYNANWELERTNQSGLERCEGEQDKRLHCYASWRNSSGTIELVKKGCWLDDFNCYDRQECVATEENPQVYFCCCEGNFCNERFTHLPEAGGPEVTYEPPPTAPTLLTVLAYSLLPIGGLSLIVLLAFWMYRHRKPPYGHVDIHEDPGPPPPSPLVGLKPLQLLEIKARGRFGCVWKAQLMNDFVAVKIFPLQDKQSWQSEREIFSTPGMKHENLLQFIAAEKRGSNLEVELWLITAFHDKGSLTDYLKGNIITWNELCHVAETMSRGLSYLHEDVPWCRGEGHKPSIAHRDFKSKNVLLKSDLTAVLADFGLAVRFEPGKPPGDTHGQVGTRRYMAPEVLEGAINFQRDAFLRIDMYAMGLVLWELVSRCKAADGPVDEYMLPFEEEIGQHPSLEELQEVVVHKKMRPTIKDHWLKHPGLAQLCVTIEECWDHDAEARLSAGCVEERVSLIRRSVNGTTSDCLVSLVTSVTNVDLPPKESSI
T2 sequence (Q16288 32-839): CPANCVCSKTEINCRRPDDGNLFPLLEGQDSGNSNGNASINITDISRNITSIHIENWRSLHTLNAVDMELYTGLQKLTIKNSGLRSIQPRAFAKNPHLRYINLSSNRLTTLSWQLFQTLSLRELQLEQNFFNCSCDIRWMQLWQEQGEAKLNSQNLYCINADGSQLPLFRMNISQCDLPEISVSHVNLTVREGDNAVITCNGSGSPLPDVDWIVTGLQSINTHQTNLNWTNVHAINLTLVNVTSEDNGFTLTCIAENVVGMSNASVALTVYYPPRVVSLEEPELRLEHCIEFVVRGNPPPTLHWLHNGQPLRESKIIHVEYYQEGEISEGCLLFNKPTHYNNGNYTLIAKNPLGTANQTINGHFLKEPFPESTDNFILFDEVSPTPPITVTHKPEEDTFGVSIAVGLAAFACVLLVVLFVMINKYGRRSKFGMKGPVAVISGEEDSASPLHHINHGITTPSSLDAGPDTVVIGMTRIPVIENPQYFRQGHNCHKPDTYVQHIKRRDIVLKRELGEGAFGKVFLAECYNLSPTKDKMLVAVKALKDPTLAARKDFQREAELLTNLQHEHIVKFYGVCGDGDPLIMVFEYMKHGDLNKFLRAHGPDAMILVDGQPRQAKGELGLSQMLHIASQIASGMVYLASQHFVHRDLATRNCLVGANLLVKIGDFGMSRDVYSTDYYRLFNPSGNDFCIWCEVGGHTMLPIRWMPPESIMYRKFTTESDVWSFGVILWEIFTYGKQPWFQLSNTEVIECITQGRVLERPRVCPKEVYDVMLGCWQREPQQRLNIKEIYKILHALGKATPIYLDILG

| SMILES | KINOMEscan: ACVR2B (panel of 442 kinases [1]) | % Ctrl, TRKC (panel of 442 kinases [2]) [% Ctrl] |
| --- | --- | --- |
| COc1cc(C(=O)N2CCC(N3CCN(C)CC3)CC2)ccc1Nc1ncc2c(n1)N(C)c1ccccc1C(=O)N2C [15 (LRRK2-IN-1)] | 100 | 100 |
| COc1cc(C(=O)N2CCC(N3CCN(C)CC3)CC2)ccc1Nc1ncc2c(n1)N1CCc3cccc(c31)C(=O)N2C [Compound 24] | – | 100 |
| COc1cc(C(=O)N2CCC(N3CCN(C)CC3)CC2)ccc1Nc1ncc2c(n1)N(C1CCCC1)c1ccccc1C(=O)N2C [Compound 25, 11-cyclopentyl-2-((2-methoxy-4-(4-(4-methylpiperazin-1-yl)piperidine-1-carbonyl)phenyl)amino)-5-methyl-5H-benzo[e]pyrimido[5,4-b][1,4]diazepin-6(11H)-one] | 91 | 100 |
| CCOc1cc(C(=O)N2CCC(N3CCN(C)CC3)CC2)ccc1Nc1ncc2c(n1)N(C1CCCC1)c1ccccc1C(=O)N2C [Compound 26] | 100 | 90 |
